{
  "source": "patent US8815918B2",
  "about": "“Imidazo [2, 1-B] [1, 3, 4] thiadiazole derivatives” (Centro Nacional de Investigaciones Oncologicas (CNIO), priority 2009, dated 2014)",
  "biological_target": "PI3K (p110α/p85α) (Homo sapiens (Human), UniProt P42336)",
  "sequence (P42336 whole entry)": "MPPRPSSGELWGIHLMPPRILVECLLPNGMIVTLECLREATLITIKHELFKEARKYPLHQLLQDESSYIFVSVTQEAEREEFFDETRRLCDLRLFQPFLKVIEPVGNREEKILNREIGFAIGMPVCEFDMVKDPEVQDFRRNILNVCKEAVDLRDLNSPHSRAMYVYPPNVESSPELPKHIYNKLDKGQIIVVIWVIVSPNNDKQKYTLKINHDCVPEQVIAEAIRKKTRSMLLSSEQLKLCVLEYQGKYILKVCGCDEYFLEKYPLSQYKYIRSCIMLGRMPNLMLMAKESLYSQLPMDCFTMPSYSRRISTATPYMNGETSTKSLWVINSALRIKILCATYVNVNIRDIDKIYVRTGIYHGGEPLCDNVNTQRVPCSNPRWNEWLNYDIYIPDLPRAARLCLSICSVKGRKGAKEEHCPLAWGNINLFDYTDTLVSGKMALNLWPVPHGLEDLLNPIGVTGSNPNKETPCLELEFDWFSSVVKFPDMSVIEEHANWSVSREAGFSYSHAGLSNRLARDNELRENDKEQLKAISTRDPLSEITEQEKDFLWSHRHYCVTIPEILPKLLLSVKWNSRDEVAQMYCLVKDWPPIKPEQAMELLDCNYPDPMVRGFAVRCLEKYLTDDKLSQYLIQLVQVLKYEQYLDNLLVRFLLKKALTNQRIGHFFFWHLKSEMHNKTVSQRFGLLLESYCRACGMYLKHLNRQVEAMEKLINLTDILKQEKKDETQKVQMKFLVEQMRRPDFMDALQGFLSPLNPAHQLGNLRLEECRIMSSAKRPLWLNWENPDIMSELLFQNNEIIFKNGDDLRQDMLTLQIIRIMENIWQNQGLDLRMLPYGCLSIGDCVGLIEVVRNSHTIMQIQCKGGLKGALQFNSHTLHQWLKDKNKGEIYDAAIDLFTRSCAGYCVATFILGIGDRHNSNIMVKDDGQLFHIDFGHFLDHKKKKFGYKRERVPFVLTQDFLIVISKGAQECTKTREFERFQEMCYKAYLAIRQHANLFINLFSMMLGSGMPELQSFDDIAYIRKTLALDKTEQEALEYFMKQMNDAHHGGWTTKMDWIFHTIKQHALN",
  "sequence (P27986 whole entry partner)": "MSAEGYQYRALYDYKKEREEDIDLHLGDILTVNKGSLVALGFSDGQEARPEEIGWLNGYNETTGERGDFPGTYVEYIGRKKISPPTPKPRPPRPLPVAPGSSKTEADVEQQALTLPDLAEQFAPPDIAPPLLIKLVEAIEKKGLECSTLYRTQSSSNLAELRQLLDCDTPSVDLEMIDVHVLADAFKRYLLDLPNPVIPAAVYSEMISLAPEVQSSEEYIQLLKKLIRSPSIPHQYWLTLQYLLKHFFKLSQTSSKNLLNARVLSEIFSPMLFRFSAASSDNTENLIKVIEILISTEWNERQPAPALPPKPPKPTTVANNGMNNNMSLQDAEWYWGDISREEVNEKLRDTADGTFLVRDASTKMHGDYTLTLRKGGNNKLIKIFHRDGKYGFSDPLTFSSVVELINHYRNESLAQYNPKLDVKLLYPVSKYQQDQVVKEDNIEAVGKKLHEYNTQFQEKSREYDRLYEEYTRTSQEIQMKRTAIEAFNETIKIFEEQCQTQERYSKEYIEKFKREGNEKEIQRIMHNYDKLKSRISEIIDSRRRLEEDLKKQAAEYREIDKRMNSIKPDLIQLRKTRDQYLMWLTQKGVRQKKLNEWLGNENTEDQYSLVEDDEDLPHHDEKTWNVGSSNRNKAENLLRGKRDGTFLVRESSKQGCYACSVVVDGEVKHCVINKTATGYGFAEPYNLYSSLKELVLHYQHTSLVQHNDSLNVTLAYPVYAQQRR",
  "assay": "PI3K Activity Assay (ADP Hunter Plus)",
  "format": "biochemical",
  "experimental": "The kinase activity was measured by using the commercial ADP Hunter™ Plus assay available from DiscoveRx (#33-016), which is a homogeneous assay to measure the accumulation of ADP, a universal product of kinase activity. The enzyme, PI3K (p110α/p85α was purchased from Carna Biosciences (#07CBS-0402A). The assay was done following the manufacturer recommendations with slight modifications: Mainly the kinase buffer was replace by 50 mM HEPES, pH 7.5, 3 mM MgCl2, 100 mM NaCl, 1 mM EGTA, 0.04% CHAPS, 2 mM TCEP and 0.01 mg/ml BGG. The PI3K was assayed in a titration experiment to determine the optimal protein concentration for the inhibition assay. To calculate the IC50 of the ETP-compounds, serial 1:5 dilutions of the compounds were added to the enzyme at a fixed concentration (2.5 μg/mL. The enzyme was preincubated with the inhibitor and 30 μM PIP2 substrate (P9763, Sigma) for 5 min and then ATP was added to a final 50 μM concentration. Reaction was carried out for 1 hour at 25° C. Reagent A and B were sequentially added to the wells and plates were incubated for 30 min at 37° C. Fluorescence counts were read in a Victor instrument (Perkin Elmer) with the recommended settings (544 and 580 nm as excitation and emission wavelengths, respectively). Values were normalized against the control activity included for each enzyme (i.e., 100% PI3 kinase activity, without compound). These values were plot against the inhibitor concentration and were fit to a sigmoid dose-response curve by using the Graphad software.",
  "key": {"[1]": {"settings": "read-out: Biological activity in PI3Kα, semi-quantitative"}},
  "note": "Read-outs that look alike come from different tables or passages of the source.",
  "data": [
    {"smiles": "CS(=O)(=O)Nc1cccc(-c2nn3c(-c4cnc(N)c(C(F)(F)F)c4)cnc3s2)c1", "note": "[Example 31, N-{3-[5-(6-Amino-5-trifluoromethyl-pyridin-3-yl)-imidazo[2,1-b][1,3,4]thiadiazol-2-yl]-phenyl}-methanesulfonamide]", "values": [
      {"measurement": "IC50", "setting": "[1]", "result": "< 0.1", "unit": "µM"}
    ]},
    {"smiles": "Nc1ncc(-c2cnc3sc(-c4cccnc4)nn23)cc1C(F)(F)F", "note": "[Example 32, 5-(2-Pyridin-3-yl-imidazo[2,1-b][1,3,4]thiadiazol-5-yl)-3-trifluoromethyl-pyridin-2-ylamine]", "values": [
      {"measurement": "IC50", "setting": "[1]", "result": "< 0.1", "unit": "µM"}
    ]},
    {"smiles": "N#Cc1ccc(-c2nn3c(-c4cnc(N)c(C(F)(F)F)c4)cnc3s2)cc1", "note": "[Example 33, 4-[5-(6-Amino-5-trifluoromethyl-pyridin-3-yl)-imidazo[2,1-b][1,3,4]thiadiazol-2-yl]-benzonitrile]", "values": [
      {"measurement": "IC50", "setting": "[1]", "result": "0.1 to 1", "unit": "µM"}
    ]},
    {"smiles": "CS(=O)(=O)NCc1cccc(-c2nn3c(-c4cnc(N)c(C(F)(F)F)c4)cnc3s2)c1", "note": "[Example 34, N-{3-[5-(6-Amino-5-trifluoromethyl-pyridin-3-yl)-imidazo[2,1-b][1,3,4]thiadiazol-2-yl]-benzyl}-methanesulfonamide]", "values": [
      {"measurement": "IC50", "setting": "[1]", "result": "< 0.1", "unit": "µM"}
    ]},
    {"smiles": "NC(=O)c1cccc(-c2nn3c(-c4cnc(N)c(C(F)(F)F)c4)cnc3s2)c1", "note": "[Example 35, 3-[5-(6-Amino-5-trifluoromethyl-pyridin-3-yl)-imidazo[2,1-b][1,3,4]thiadiazol-2-yl]-benzamide]", "values": [
      {"measurement": "IC50", "setting": "[1]", "result": "< 0.1", "unit": "µM"}
    ]},
    {"smiles": "CCn1cc(-c2nn3c(-c4cnc(N)c(C(F)(F)F)c4)cnc3s2)cn1", "note": "[Example 36, 5-[2-(1-Ethyl-1H-pyrazol-4-yl)-imidazo[2,1-b][1,3,4]thiadiazol-5-yl]-3-trifluoromethyl-pyridin-2-ylamine]", "values": [
      {"measurement": "IC50", "setting": "[1]", "result": "< 0.1", "unit": "µM"},
      {"measurement": "IC50", "setting": "read-out: IC50 [μM] PI3Kα", "result": 0.095, "unit": "µM"}
    ]},
    {"smiles": "Cc1ccncc1-c1nn2c(-c3cnc(N)c(C(F)(F)F)c3)cnc2s1", "note": "[Example 37, 5-[2-(4-Methyl-pyridin-3-yl)-imidazo[2,1-b][1,3,4]thiadiazol-5-yl]-3-trifluoromethyl-pyridin-2-ylamine]", "values": [
      {"measurement": "IC50", "setting": "[1]", "result": "< 0.1", "unit": "µM"}
    ]},
    {"smiles": "CC(C)(C)OC(=O)N1CCC2(CC1)C(=O)Nc1ccc(-c3nn4c(-c5cnc(N)c(C(F)(F)F)c5)cnc4s3)cc12", "note": "[Example 38, 5-[2-(1′-(tert-butoxycarbonyl)-2-oxo-1,2-dihydrospiro[indole-3,4′-piperidine]-5-yl)-imidazo[2,1-b][1,3,4]thiadiazol-5-yl]-3-trifluoromethyl-pyridin-2-ylamine]", "values": [
      {"measurement": "IC50", "setting": "[1]", "result": "1 to 50", "unit": "µM"}
    ]},
    {"smiles": "Nc1ncc(-c2cnc3sc(-c4ccc5c(c4)C4(CCNCC4)C(=O)N5)nn23)cc1C(F)(F)F", "note": "[Example 39, 5-[2-(2-oxo-1,2-dihydrospiro[indole-3,4′-piperidine]-5-yl)-imidazo[2,1-b][1,3,4]thiadiazol-5-yl]-3-trifluoromethyl-pyridin-2-ylamine]", "values": [
      {"measurement": "IC50", "setting": "[1]", "result": "< 0.1", "unit": "µM"}
    ]},
    {"smiles": "Nc1ncc(-c2cnc3sc(-c4ccc5[nH]ccc5c4)nn23)cc1C(F)(F)F", "note": "[Example 40, 5-[2-(1H-Indol-5-yl)-imidazo[2,1-b][1,3,4]thiadiazol-5-yl]-3-trifluoromethyl-pyridin-2-ylamine]", "values": [
      {"measurement": "IC50", "setting": "[1]", "result": "0.1 to 1", "unit": "µM"},
      {"measurement": "IC50", "setting": "read-out: IC50 [μM] PI3Kα", "result": 0.676, "unit": "µM"}
    ]},
    {"smiles": "CS(=O)(=O)c1cccc(-c2nn3c(-c4cnc(N)c(C(F)(F)F)c4)cnc3s2)c1", "note": "[Example 41, 5-[2-(3-Methanesulfonyl-phenyl)-imidazo[2,1-b][1,3,4]thiadiazol-5-yl]-3-trifluoromethyl-pyridin-2-ylamine]", "values": [
      {"measurement": "IC50", "setting": "[1]", "result": "< 0.1", "unit": "µM"},
      {"measurement": "IC50", "setting": "read-out: IC50 [μM] PI3Kα", "result": 0.05, "unit": "µM"}
    ]},
    {"smiles": "CN(C)c1cccc(-c2nn3c(-c4cnc(N)c(C(F)(F)F)c4)cnc3s2)c1", "note": "[Example 42, 5-[2-(3-Dimethylamino-phenyl)-imidazo[2,1-b][1,3,4]thiadiazol-5-yl]-3-trifluoromethyl-pyridin-2-ylamine]", "values": [
      {"measurement": "IC50", "setting": "[1]", "result": "0.1 to 1", "unit": "µM"}
    ]},
    {"smiles": "Cc1ccc(-c2nn3c(-c4cnc(N)c(C(F)(F)F)c4)cnc3s2)cn1", "note": "[Example 43, 5-[2-(6-Methyl-pyridin-3-yl)-imidazo[2,1-b][1,3,4]thiadiazol-5-yl]-3-trifluoromethyl-pyridin-2-ylamine]", "values": [
      {"measurement": "IC50", "setting": "[1]", "result": "< 0.1", "unit": "µM"},
      {"measurement": "IC50", "setting": "read-out: IC50 [μM] PI3Kα", "result": 0.062, "unit": "µM"}
    ]}
  ]
}
